Experimental data: DBAASP
≈ marks a conversion by molar mass, not a printed value. Where “and” joins values, the source holds several entries; their conditions need not be identical. Identical values can stand only once. One block for each compound: values may come before it.

Columns and labels:
Assay in all cases: ≥ marks a high value that may be exact or a test limit, other limits are often not marked, values filed in µg/mL are converted to µM
[1] = system: Staphylococcus aureus SPM 101
[2] = system: Escherichia coli SPE 001
[3] = system: Micrococcus luteus ATCC 7468
[4] = system: Staphylococcus aureus ATCC 502A
[5] = system: Pseudomonas sp. ATCC 15915
[6] = system: Acinetobacter baumannii ATCC 15308
[7] = system: Enterococcus faecium ATCC 19434
[8] = system: Escherichia coli BL2
[9] = system: Candida tropicalis
[10] = system: Vibrio parahaemolyticus CCRC 10806
[11] = system: Staphylococcus xylosus
[12] = system: Staphylococcus aureus CCRC 15211
[13] = system: Pseudomonas aeruginosa
[14] = system: Salmonella enterica
[15] = system: Citrobacter koseri
[16] = system: Escherichia coli JM109
[17] = system: Staphylococcus aureus CCRC 12652
[18] = system: Klebsiella pneumoniae CCRC 10694
[19] = system: Escherichia coli BL21
[20] = system: Salmonella typhimurium CCRC 12947
[21] = system: Streptococcus alactolyticus
[22] = system: Vibrio cholerae
[23] = system: Enterococcus faecalis ATCC 29212
[24] = system: Bacillus subtilis MTCC 14416
[25] = system: Staphylococcus aureus ATCC 43300
[26] = system: Escherichia coli MG1655
[27] = system: Staphylococcus aureus MTCC 9542
[28] = system: Staphylococcus aureus A170
[29] = system: Staphylococcus epidermidis
[30] = system: Klebsiella pneumoniae M6
[31] = system: Pseudomonas aeruginosa PAO1
[32] = system: Enterococcus faecalis NCTC 12201
[33] = system: Pseudomonas aeruginosa NCTC 13437
[34] = system: Staphylococcus aureus NCTC 13616
[35] = system: Acinetobacter baumannii ATCC 17978
[36] = system: Staphylococcus aureus NCTC 6571
[37] = system: Enterococcus faecalis NCTC 775
[38] = system: Candida albicans NCPF 3179
[39] = system: Staphylococcus aureus NCTC 13277
[40] = system: Klebsiella pneumoniae NCTC 13368
[41] = system: Acinetobacter baumannii AYE

Compound: CC(C)C[C@H](NC(=O)[C@H](CCCCN)NC(=O)[C@H](CC(C)C)NC(=O)[C@H](CC(C)C)NC(=O)[C@H](CC(C)C)NC(=O)[C@H](CC(C)C)NC(=O)[C@H](CCCCN)NC(=O)[C@H](CC(C)C)NC(=O)[C@@H](N)CCCCN)C(=O)N[C@@H](CCCCN)C(N)=O [KLKLLLLKLK]
MIC [1]: 1.65 µM (≈ 2 µg/mL)
MIC [2]: 26.5 µM (≈ 32 µg/mL)

Compound: CC[C@H](C)[C@H](NC(=O)[C@H](C)NC(=O)[C@H](Cc1ccccc1)NC(=O)[C@H](Cc1c[nH]c2ccccc12)NC(=O)[C@H](CCC(N)=O)NC(=O)[C@H](C)NC(=O)[C@H](CCCN=C(N)N)NC(=O)[C@@H](NC(=O)[C@H](Cc1ccccc1)NC(=O)[C@H](CCC(N)=O)NC(=O)[C@@H]1CCCN1C(=O)[C@@H]1CCCN1C(=O)[C@@H](N)CCCN=C(N)N)[C@@H](C)O)C(=O)N[C@@H](CCC(N)=O)C(=O)N[C@@H](Cc1cnc[nH]1)C(=O)N[C@H](C(=O)N[C@@H](CO)C(=O)N[C@@H](CC(C)C)C(=O)N[C@@H](CC(N)=O)C(=O)O)[C@@H](C)CC [RPPQFTRAQWFAIQHISLN]
MIC [3]: 10 µM (≈ 23.1 µg/mL)
MIC [4]: 10 µM (≈ 23.1 µg/mL)
MIC [5]: 10 µM (≈ 23.1 µg/mL)
MIC [6]: 10 µM (≈ 23.1 µg/mL)
MIC [7]: 10 µM (≈ 23.1 µg/mL)
MIC [8]: 10 µM (≈ 23.1 µg/mL)

Compound: CSCC[C@H](NC(=O)[C@@H](N)CC(C)C)C(=O)N[C@H]1CSSC[C@@H](C(=O)N[C@@H](CO)C(=O)N[C@@H](CC(N)=O)C(=O)O)NC(=O)[C@H](CC(=O)O)NC(=O)[C@H](CC(C)C)NC(=O)[C@@H]2CCCN2C(=O)[C@H](Cc2cnc[nH]2)NC(=O)[C@H]([C@@H](C)O)NC1=O [LMCTHPLDCSN]
MIC [9]: 25.9 µM (≈ 31.9 µg/mL)

Compound: CC[C@H](C)[C@H](NC(=O)[C@H](C)NC(=O)[C@H](CS)NC(=O)[C@H](Cc1ccccc1)NC(=O)[C@@H](NC(=O)[C@H](CCCCN)NC(=O)[C@@H]1CCCN1C(=O)[C@H](CC(C)C)NC(=O)[C@H](Cc1ccccc1)NC(=O)[C@H](CCCCN)NC(=O)[C@H](C)NC(=O)[C@H](C)NC(=O)[C@H](CCSC)NC(=O)CNC(=O)[C@H](C)NC(=O)[C@@H](NC(=O)[C@H](Cc1ccccc1)NC(=O)[C@@H]1CCCN1C(=O)[C@H](CC(C)C)NC(=O)[C@@H](N)Cc1ccccc1)[C@@H](C)CC)[C@@H](C)CC)C(=O)N[C@@H](CO)C(=O)N[C@@H](CCCCN)C(=O)N[C@@H](CCCCN)C(N)=O [FLPFIAGMAAKFLPKIFCAISKK]
MIC [22]: 9.83 µM (≈ 25 µg/mL)
MIC [23]: 9.83 µM (≈ 25 µg/mL)
MIC [24]: 9.83 µM (≈ 25 µg/mL)
MIC [25]: 2.46 µM (≈ 6.25 µg/mL)
MIC [26]: 7.87 µM (≈ 20 µg/mL)
MIC [27]: 9.83 µM (≈ 25 µg/mL)

Further lines, with some results ahead:

MIC [11]: 1.32 µM (≈ 2 µg/mL)
MIC [12]: 21.1 µM (≈ 32 µg/mL)
MIC [13]: 84.5 µM (≈ 128 µg/mL)
MIC [14]: 10.6 µM (≈ 16 µg/mL)
MIC [15]: 2.64 µM (≈ 4 µg/mL)
MIC [16]: 5.28 µM (≈ 7.99 µg/mL)
MIC [17]: 15.9 µM (≈ 24 µg/mL)
MIC [18]: 21.1 µM (≈ 32 µg/mL)
MIC [19]: 5.28 µM (≈ 7.99 µg/mL)
MIC [20]: 21.1 µM (≈ 32 µg/mL)
MIC [21]: 10.6 µM (≈ 16 µg/mL)
Compound: CC[C@H](C)[C@H](N)C(=O)N[C@@H](CC(N)=O)C(=O)N[C@@H](CC(C)C)C(=O)N[C@@H](CCCCN)C(=O)N[C@@H](C)C(=O)N[C@H](C(=O)N[C@@H](C)C(=O)N[C@@H](C)C(=O)N[C@@H](Cc1ccccc1)C(=O)N[C@@H](C)C(=O)N[C@@H](CCCCN)C(=O)N[C@@H](CCCCN)C(=O)N[C@@H](CC(C)C)C(=O)N[C@@H](CC(C)C)C(N)=O)[C@@H](C)CC [INLKAIAAFAKKLL]
MIC [10]: 21.1 µM (≈ 32 µg/mL)

MIC [28]: 3.55 µM (≈ 5 µg/mL)
MIC [29]: 7.11 µM (≈ 10 µg/mL)
Compound: CC[C@H](C)[C@H](NC(=O)[C@@H]1CCCN1C(=O)[C@H](CC(C)C)NC(=O)[C@@H](N)CC(C)C)C(=O)N[C@H](C(=O)N[C@@H](C)C(=O)N[C@@H](CC(N)=O)C(=O)N[C@@H](CC(C)C)C(=O)N[C@@H](CC(C)C)C(=O)N[C@@H](CCCCN)C(=O)N[C@@H](CO)C(=O)N[C@@H](CC(C)C)C(=O)N[C@@H](CC(C)C)C(=O)O)C(C)C [LLPIVANLLKSLL]

MIC [30]: ≥ 77 µM
MIC [31]: > 77 µM
MIC [32]: ≥ 77 µM
MIC [33]: ≥ 77 µM
MIC [34]: ≥ 77 µM
MIC [35]: 19.2 µM and ≥ 38.5 µM
MIC [36]: ≥ 77 µM
MIC [37]: ≥ 77 µM
MIC [38]: ≥ 77 µM
MIC [39]: ≥ 77 µM
MIC [40]: ≥ 77 µM
MIC [41]: 19.2 µM and ≥ 38.5 µM
Compound: CC[C@H](C)[C@H](NC(=O)[C@@H]1CCCN1C(=O)[C@H](CC(C)C)NC(=O)[C@H](CC(C)C)NC(=O)[C@H](CCCCN)NC(=O)[C@@H](N)CCCCN)C(=O)N[C@H](C(=O)N[C@@H](C)C(=O)N[C@@H](CC(N)=O)C(=O)N[C@@H](CC(C)C)C(=O)N[C@@H](CC(C)C)C(=O)N[C@@H](CCCCN)C(=O)N[C@@H](CO)C(=O)N[C@@H](CC(C)C)C(=O)N[C@@H](CC(C)C)C(N)=O)C(C)C [KKLLPIVANLLKSLL]
